Source: US12037340B2, “Pentacyclic derivatives as Zika virus inhibitors” (Gilead Sciences, Inc., priority 2021, dated 2024)

What follows are compounds tested on ZIKV (assay: microbe, parasite or virus in culture). Details: 48 hrs.
Format: cell-based, Zika virus
With `CC[C@H](C)[C@H](NC(=O)OC)C(=O)N1[C@H](c2nc(Cl)c(-c3ccc4c(c3)COc3cc5c(ccc6nc([C@@H]7C[C@@H]8CCC[C@@H]8N7C(=O)[C@@H](NC(=O)OC)[C@@H](C)CC)[nH]c65)cc3-4)[nH]2)C[C@@H]2CCC[C@@H]21` [Compound 35, methyl ((2S,3S)-1-((2S,3aS,6aS)-2-(4-chloro-5-(2-((2S,3aS,6aS)-1-((methoxycarbonyl)-L-isoleucyl)octahydrocyclopenta[b]pyrrol-2-yl)-1,11-dihydroisochromeno[4′,3′:6,7]naphtho[1,2-d]imidazol-9-yl)-1H-imidazol-2-yl)hexahydrocyclopenta[b]pyrrol-l(2H)-yl)-3-methyl-1-oxopentan-2-yl)carbamate] the EC50 was 20.9 nM. For `COC(=O)N[C@H](C(=O)N1CC2(CC2)C[C@H]1c1nc(Cl)c(-c2ccc3c(c2)COc2cc4c(ccc5nc([C@@H]6CC7(CC7)CN6C(=O)[C@@H](NC(=O)OC)C(C)(C)C(F)(F)F)[nH]c54)cc2-3)[nH]1)C(C)(C)C(F)(F)F` [Compound 4, methyl ((S)-1-((S)-6-(4-chloro-5-(2-((S)-5-((S)-4,4,4-trifluoro-2-((methoxycarbonyl)amino)-3,3-dimethylbutanoyl)-5-azaspiro[2.4]heptan-6-yl)-1,11-dihydroisochromeno[4′,3′:6,7]naphtho[1,2-d]imidazol-9-yl)-1H-imidazol-2-yl)-5-azaspiro[2.4]heptan-5-yl)-4,4,4-trilluoro-3,3-dimethyl-1-oxobutan-2-yl)carbamate], the EC50 was 8.7 nM.

Same assay, conditions: Zika virus, Huh-7; 48 hrs
With `COC(=O)N[C@H](C(=O)N1[C@@H](C)CC[C@H]1c1nc(C(C)C)c(-c2ccc3c(c2)COc2cc4c(ccc5nc([C@@H]6CC[C@H](C)N6C(=O)[C@@H](NC(=O)OC)C(C)(C)C(F)(F)F)[nH]c54)cc2-3)[nH]1)C(C)(C)C(F)(F)F` [Compound 45, methyl ((S)-4,4,4-trifluoro-1-((2S,5S)-2-(4-isopropyl-5-(2-((2S,5S)-5-methyl-1-((S)-4,4,4-trifluoro-2-((methoxycarbonyl)amino)-3,3-dimethylbutanoyl)pyrrolidin-2-yl)-1,11-dihydroisochromeno[4′,3′:6,7]naphtho[1,2-d]imidazol-9-yl)-1H-imidazol-2-yl)-5-methylpyrrolidin-1-yl)-3,3-dimethyl-1-oxobutan-2-yl)carbamate] the EC50 was 4.9 nM. Compound `CC[C@H](C)[C@H](NC(=O)OC)C(=O)N1C[C@@H](COC)C[C@H]1c1nc(C2CC2)c(-c2ccc3c(c2)COc2cc4c(ccc5nc([C@@H]6CC[C@H](C)N6C(=O)[C@@H](NC(=O)OC)C(C)C)[nH]c54)cc2-3)[nH]1` [Compound 18, methyl ((S)-1-((2S,5S)-2-(9-(4-cyclopropyl-2-((2S,4S)-1-((methoxycarbonyl)-L-isoleucyl)-4-(methoxymethyl)pyrrolidin-2-yl)-1H-imidazol-5-yl)-1,11-dihydroisochromeno[4′,3′:6,7]naphtho[1,2-d]imidazol-2-yl)-5-methylpyrrolidin-1-yl)-3-methyl-1-oxobutan-2-yl)carbamate] has an EC50 of 7.7 nM. For `COC(=O)N[C@H](C(=O)N1[C@@H](C)CC[C@H]1c1nc(Br)c(-c2ccc3c(c2)COc2cc4c(ccc5nc([C@@H]6CC[C@H](C)N6C(=O)[C@@H](NC(=O)OC)C6C[C@@H](C)O[C@H](C)C6)[nH]c54)cc2-3)[nH]1)C1CC(C)O[C@H](C)C1` (stereo in doubt) [Compound 10, methyl ((S)-2-((2S,5S)-2-(9-(4-bromo-2-((2S,5S)-1-((S)-2-((2R,6R)-2,6-dimethyltetrahydro-2H-pyran-4-yl)-2-((methoxycarbonyl)amino)acetyl)-5-methylpyrrolidin-2-yl)-1H-imidazol-5-yl)-1,11-dihydroisochromeno[4′,3′:6,7]naphtho[1,2-d]imidazol-2-yl)-5-methylpyrrolidin-1-yl)-1-((2R,6R)-2,6-dimethyltetrahydro-2H-pyran-4-yl)-2-oxoethyl)carbamate], the EC50 was 18.8 nM. In the case of `COC(=O)N[C@H](C(=O)N1[C@@H](C)CC[C@H]1c1nc(Cl)c(-c2ccc3c(c2)COc2cc4c(ccc5nc([C@@H]6CC[C@H](C)N6C(=O)[C@@H](NC(=O)OC)C(C)(C)CF)[nH]c54)cc2-3)[nH]1)C(C)(C)CF` [Compound 32, methyl ((S)-1-((2S,5S)-2-(4-chloro-5-(2-((2S,5S)-1-((S)-4-fluoro-2-((methoxycarbonyl)amino)-3,3-dimethylbutanoyl)-5-methylpyrrolidin-2-yl)-1,11-dihydroisochromeno[4′,3′:6,7]naphtho[1,2-d]imidazol-9-yl)-1H-imidazol-2-yl)-5-methylpyrrolidin-1-yl)-4-fluoro-3,3-dimethyl-1-oxobutan-2-yl)carbamate], the EC50 is reported as 5.9 nM. Work on `COC(=O)N[C@H](C(=O)N1[C@@H](C)CC[C@H]1c1nc(C2CC2)c(-c2ccc3c(c2)COc2cc4c(ccc5nc([C@@H]6CC[C@H](C)N6C(=O)[C@@H](NC(=O)OC)C6C[C@@H](C)O[C@H](C)C6)[nH]c54)cc2-3)[nH]1)C1C[C@@H](C)O[C@H](C)C1` (stereo partly drawn) [Compound 11, methyl ((S)-2-((2S,5S)-2-(9-(4-cyclopropyl-2-((2S,5S)-1-((S)-2-((2R,6R)-2,6-dimethyltetrahydro-2H-pyran-4-yl)-2-((methoxycarbonyl)amino)acetyl)-5-methylpyrrolidin-2-yl)-1H-imidazol-5-yl)-1,11-dihydroisochromeno[4′,3′:6,7]naphtho[1,2-d]imidazol-2-yl)-5-methylpyrrolidin-1-yl)-1-((2R,6R)-2,6-dimethyltetrahydro-2H-pyran-4-yl)-2-oxoethyl)carbamate] yielded an EC50 of 21.9 nM. For `CC[C@H](C)[C@H](NC(=O)OC)C(=O)N1[C@@H](C)CC[C@H]1c1nc(Cl)c(-c2ccc3c(c2)COc2cc4c(ccc5nc([C@@H]6CC[C@H](C)N6C(=O)[C@@H](NC(=O)OC)C6CCOCC6)[nH]c54)cc2-3)[nH]1` [Compound 15, methyl ((S)-2-((2S,5S)-2-(9-(4-chloro-2-((2S,5S)-1-((methoxycarbonyl)-L-isoleucyl)-5-methylpyrrolidin-2-yl)-1H-imidazol-5-yl)-1,11-dihydroisochromeno[4′,3′:6,7]naphtho[1,2-d]imidazol-2-yl)-5-methylpyrrolidin-1-yl)-2-oxo-1-(tetrahydro-2H-pyran-4-yl)ethyl)carbamate], the EC50 was 7.7 nM. Compound `CC[C@H](C)[C@H](NC(=O)OC)C(=O)N1[C@@H](C)CC[C@H]1c1nc(Cl)c(-c2ccc3c(c2)COc2cc4c(ccc5nc([C@@H]6CC[C@H](C)N6C(=O)[C@@H](NC(=O)OC)[C@@H](C)CC)[nH]c54)cc2-3)[nH]1` [Compound 22, methyl ((2S,3S)-1-((2S,5S)-2-(4-chloro-5-(2-((2S,5S)-1-((methoxycarbonyl)-L-isoleucyl)-5-methylpyrrolidin-2-yl)-1,11-dihydroisochromeno[4′,3′:6,7]naphtho[1,2-d]imidazol-9-yl)-1H-imidazol-2-yl)-5-methylpyrrolidin-1-yl)-3-methyl-1-oxopentan-2-yl)carbamate] has an EC50 of 10.8 nM. `COC(=O)N[C@H](C(=O)N1CC2(CC2)C[C@H]1c1nc(Cl)c(-c2ccc3c(c2)COc2cc4c(ccc5nc([C@@H]6CC7(CC7)CN6C(=O)[C@@H](NC(=O)OC)C(C)C)[nH]c54)cc2-3)[nH]1)C(C)C` [Compound 2, methyl ((S)-1-((S)-6-(4-chloro-5-(2-((S)-5-((methoxycarbonyl)-L-valyl)-5-azaspiro[2.4]heptan-6-yl)-1,11-dihydroisochromeno[4′,3′:6,7]naphtho[1,2-d]imidazol-9-yl)-1H-imidazol-2-yl)-5-azaspiro[2.4]heptan-5-yl)-3-methyl-1-oxobutan-2-yl)carbamate] gave an EC50 of 50.5 nM. `COC(=O)N[C@H](C(=O)N1CCC[C@H]1c1nc(Cl)c(-c2ccc3c(c2)COc2cc4c(ccc5nc([C@@H]6CCCN6C(=O)[C@@H](NC(=O)OC)C(C)(C)C)[nH]c54)cc2-3)[nH]1)C(C)(C)C` [Compound 30, methyl ((S)-1-((S)-2-(4-chloro-5-(2-((S)-1-((S)-2-((methoxycarbonyl)amino)-3,3-dimethylbutanoyl)pyrrolidin-2-yl)-1,11-dihydroisochromeno[4′,3′:6,7]naphtho[1,2-d]imidazol-9-yl)-1H-imidazol-2-yl)pyrrolidin-1-yl)-3,3-dimethyl-1-oxobutan-2-yl)carbamate] showed an EC50 of 44.7 nM. In the case of `COC(=O)N[C@H](C(=O)N1[C@@H](C)CC[C@H]1c1nc(Cl)c(-c2ccc3c(c2)COc2cc4c(ccc5nc([C@@H]6CC[C@H](C)N6C(=O)[C@@H](NC(=O)OC)C(C)C)[nH]c54)cc2-3)[nH]1)C(C)C` [Compound 21, methyl ((S)-1-((2S,5S)-2-(4-chloro-5-(2-((2S,5S)-1-((methoxycarbonyl)-L-valyl)-5-methylpyrrolidin-2-yl)-1,11-dihydroisochromeno[4′,3′:6,7]naphtho[1,2-d]imidazol-9-yl)-1H-imidazol-2-yl)-5-methylpyrrolidin-1-yl)-3-methyl-1-oxobutan-2-yl)carbamate], the EC50 is reported as 18.9 nM. `CC[C@H](C)[C@H](NC(=O)OC)C(=O)N1C[C@@H](COC)C[C@H]1c1nc(Br)c(-c2ccc3c(c2)COc2cc4c(ccc5nc([C@@H]6CC[C@H](C)N6C(=O)[C@@H](NC(=O)OC)C(C)C)[nH]c54)cc2-3)[nH]1` [Compound 17, methyl ((S)-1-((2S,5S)-2-(9-(4-bromo-2-((2S,4S)-1-((methoxycarbonyl)-L-isoleucyl)-4-(methoxymethyl)pyrrolidin-2-yl)-1H-imidazol-5-yl)-1,11-dihydroisochromeno[4′,3′:6,7]naphtho[1,2-d]imidazol-2-yl)-5-methylpyrrolidin-1-yl)-3-methyl-1-oxobutan-2-yl)carbamate] gave an EC50 of 15.6 nM. In the case of `COC(=O)N[C@H](C(=O)N1[C@@H](C)CC[C@H]1c1nc(C(C)C)c(-c2ccc3c(c2)COc2cc4c(ccc5nc([C@@H]6CC[C@H](C)N6C(=O)[C@@H](NC(=O)OC)C(C)(C)CF)[nH]c54)cc2-3)[nH]1)C(C)(C)CF` [Compound 47, methyl ((S)-4-fluoro-1-((2S,5S)-2-(5-(2-((2S,5S)-1-((S)-4-fluoro-2-((methoxycarbonyl)amino)-3,3-dimethylbutanoyl)-5-methylpyrrolidin-2-yl)-1,11-dihydroisochromeno[4′,3′:6,7]naphtho[1,2-d]imidazol-9-yl)-4-isopropyl-1H-imidazol-2-yl)-5-methylpyrrolidin-1-yl)-3,3-dimethyl-1-oxobutan-2-yl)carbamate], the EC50 is reported as 21.7 nM.
